Laboratory results reported in US20060074084A1, “Inhibitors of soluble adenylate cyclase” (priority 2004, published 2006).
Values after ≈ are worked out from the molar mass of the structure shown. Read-outs that look alike come from different tables or passages of the source.

Columns and labels:
[1] = biological target: soluble, sperm-specific adenylate cyclase (sAC) (Homo sapiens, UniProt Q96PN6); assay: sAC-Assay (enzyme test, HTRF cAMP detection); type: biochemical
Source text: In a suitable buffer system, the soluble, sperm-specific adenylate cyclase catalyzes the reaction of adenosine triphosphate (ATP) to cyclic adenosine monophosphate (cAMP) and pyrophosphate. Free cAMP that is generated in this way is then used in a competitive detection process, in which the binding of a europium kryptate (Eu[K])-labeled anti-cAMP antibody (anti cAMP-Eu[K]-AK) to a cAMP-molecule-labeled, modified allophycocyanine-1 molecule (cAMP-XL665) is prevented. In the absence of exogenic cAMP, after excitation at 335 nm, it results in a fluorescence resonance energy transfer (FRET) between the anti cAMP-Eu[K]-AK (FRET-donor) and the cAMP-XL665 molecule (FRET-acceptor). This process is quantified at different times (time-resolved) based on the emission of FRET-acceptor XL665 (665 nm and 620 nm). A signal drop (measured as a wave ratio; calculation formula: [(E665 nm/E620 nm)×10000]) can be attributed to the presence of cAMP and thus to the activity of sAC.
First, 1.5 μl of the test substance (in 30% DMSO), only 30% DMSO in the solvent controls, is introduced per recess in a 384-hole test plate (polystyrene; 384, NV). Then, 10 μl of a dilute sAC enzyme solution is recovered (enzyme stock solution in 300 mmol of NaCl, 10% glycerol; pH 7.6; intermediate and final enzyme dilution a) 1:10 and b) 1:2000 in each case in: 1.0 mmol of MnCl2; 0.2% BSA; 50 mmol of tris, pH 7.5 in H2O). The enzyme reaction is started by adding 5 μl of the ATP-substrate solution (200 μmol of ATP in H2O) and is completed after incubation (25 minutes at room temperature) by the addition of 5 μl of stop solution (200 μmol of EDTA in PBS).
Then, 8 μl of detection solution 1 is introduced into a recess of the 384-hole measuring plate (measuring plate: polystyrene; 384, SV—black; detection solution 1:50 μl of cAMP-XL665; 950 μl of reconstitution buffer; 2200 [[…] of PBS; cAMP-XL665: production by the addition of 5 ml of H2O to the freeze-dried product as specified by Cis Bio Kit: #62AMPPEC instructions; storage: aliquoted at −80° C.). Then, 3 μl from the 91.5 μl is added to the corresponding recess of the test plate. Finally, the addition of 8 μl of detection solution 2 (detection solution 2: 50 μl of anti cAMP-Eu[K]-AK; 950 μl of reconstitution buffer; 2200 μl of PBS; anti cAMP-Eu[K]-AK: production as specified by Cis Bio Kit: #62AMPPEC instructions; storage: aliquoted at −80° C.) is carried out.
After an additional incubation of 90 minutes at room temperature, the HTRF result is measured either on the Packard Discovery or with the RubiStar HTRF measuring device (Delay: 50 μs; Integration time: 400 μs).

[2] = Solubility; type: physicochemical
[3] = comparison with known compounds in the enzyme test
[4] = Biological Data table, read-out: Solubility

Sequence of soluble, sperm-specific adenylate cyclase (sAC) (Q96PN6 whole entry): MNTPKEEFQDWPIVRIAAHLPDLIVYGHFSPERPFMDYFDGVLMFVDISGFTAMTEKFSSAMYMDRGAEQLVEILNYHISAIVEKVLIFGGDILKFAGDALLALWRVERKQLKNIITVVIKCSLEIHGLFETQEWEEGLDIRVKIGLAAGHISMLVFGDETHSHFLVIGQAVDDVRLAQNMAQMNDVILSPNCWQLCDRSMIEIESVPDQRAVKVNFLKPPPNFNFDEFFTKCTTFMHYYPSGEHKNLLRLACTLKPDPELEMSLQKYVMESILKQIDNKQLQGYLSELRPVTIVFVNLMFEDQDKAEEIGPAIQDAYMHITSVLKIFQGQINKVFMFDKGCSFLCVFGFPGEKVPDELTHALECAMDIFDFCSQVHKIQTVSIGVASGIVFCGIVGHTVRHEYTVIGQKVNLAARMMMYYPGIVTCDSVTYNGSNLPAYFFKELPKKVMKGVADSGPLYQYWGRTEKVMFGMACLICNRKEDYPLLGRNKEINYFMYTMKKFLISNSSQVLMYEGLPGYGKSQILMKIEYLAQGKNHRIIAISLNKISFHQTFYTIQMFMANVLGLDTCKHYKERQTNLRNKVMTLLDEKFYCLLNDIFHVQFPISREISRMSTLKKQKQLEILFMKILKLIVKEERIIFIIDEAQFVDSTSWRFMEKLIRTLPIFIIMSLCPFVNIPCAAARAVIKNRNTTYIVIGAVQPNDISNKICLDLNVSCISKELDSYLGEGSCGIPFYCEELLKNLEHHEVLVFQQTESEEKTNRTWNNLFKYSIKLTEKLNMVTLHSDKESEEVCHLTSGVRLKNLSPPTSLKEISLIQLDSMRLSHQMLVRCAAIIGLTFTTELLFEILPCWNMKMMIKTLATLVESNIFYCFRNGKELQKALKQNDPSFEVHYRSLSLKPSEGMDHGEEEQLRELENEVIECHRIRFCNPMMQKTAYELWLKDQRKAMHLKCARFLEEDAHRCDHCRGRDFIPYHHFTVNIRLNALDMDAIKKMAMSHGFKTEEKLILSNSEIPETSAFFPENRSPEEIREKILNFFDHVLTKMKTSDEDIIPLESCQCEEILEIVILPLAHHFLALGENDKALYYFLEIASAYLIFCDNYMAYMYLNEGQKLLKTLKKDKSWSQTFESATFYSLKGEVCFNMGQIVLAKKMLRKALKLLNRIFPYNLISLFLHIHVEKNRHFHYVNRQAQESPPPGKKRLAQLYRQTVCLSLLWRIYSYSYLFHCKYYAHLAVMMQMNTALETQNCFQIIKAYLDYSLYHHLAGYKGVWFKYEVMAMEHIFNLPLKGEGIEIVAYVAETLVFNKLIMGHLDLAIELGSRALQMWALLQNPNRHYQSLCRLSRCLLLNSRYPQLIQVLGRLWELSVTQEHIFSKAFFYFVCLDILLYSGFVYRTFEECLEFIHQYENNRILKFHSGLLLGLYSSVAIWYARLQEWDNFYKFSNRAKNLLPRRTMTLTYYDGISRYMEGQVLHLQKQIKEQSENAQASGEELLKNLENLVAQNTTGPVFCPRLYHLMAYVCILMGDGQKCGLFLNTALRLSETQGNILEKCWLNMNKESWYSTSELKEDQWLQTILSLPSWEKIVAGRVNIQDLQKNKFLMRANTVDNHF

Structure (SMILES)	IC50 [1, 3] [µM]	IC50 ([1]; Biological Data table) [µM]	solubility [2, 4] [µg/mL]	solubility ([2]; comparison table) [µg/mL]
C[C@]12CC[C@@H]3c4cc(O)c(O)cc4CC[C@H]3[C@@H]1CC[C@@H]2O [2-OH-Estradiol, reference compound]	11			
C[C@]12CC[C@@H]3c4ccc(O)c(O)c4CC[C@H]3[C@@H]1CC[C@@H]2O [4-OH-Estradiol, reference compound]	13			
CC(C)(C)c1ccc(S(=O)(=O)Nc2ccc3[nH]c(C(=O)NC4CC4)c(-c4ccccc4)c3c2)cc1 [Example 1, 5-(4-tert-Butylbenzenesulfonylamino)-3-phenyl-1H-indole-2-carboxylic acid-cyclopropylamide]		3.4	1 (≈ 2.05 µM)	
CC(C)(C)c1ccc(S(=O)(=O)Nc2ccc3[nH]c(C(=O)Nc4cccnc4)c(-c4ccccc4)c3c2)cc1 [Example 2, 5-(4-tert-Butylbenzenesulfonylamino)-3-phenyl-1H-indole-2-carboxylic acid-pyridin-3-ylamide]			1 (≈ 1.91 µM)	
CC(C)(C)c1ccc(S(=O)(=O)Nc2ccc3[nH]c(C(=O)NC4CCCCC4)c(-c4ccccc4)c3c2)cc1 [Example 3, 5-(4-tert-Butylbenzenesulfonylamino)-3-phenyl-1H-indole-2-carboxylic acid-cyclohexylamide]		2	1 (≈ 1.89 µM)	
CN(C)CCNC(=O)c1[nH]c2ccc(NS(=O)(=O)c3ccc(C(C)(C)C)cc3)cc2c1-c1ccccc1 [Example 6, 5-(4-tert-Butylbenzenesulfonylamino)-3-phenyl-1H-indole-2-carboxylic acid-(2-dimethylaminoethyl)amide]			0.1 (≈ 0.193 µM)	0.1 (≈ 0.193 µM)
CCCNC(=O)c1[nH]c2ccc(NS(=O)(=O)c3ccc(C(C)(C)C)cc3)cc2c1-c1ccccc1 [Example 9, 5-(4-tert-Butylbenzenesulfonylamino)-3-phenyl-1H-indole-2-carboxylic acid propylamide]		5.3	1.5 (≈ 3.06 µM)	
CCCNC(=O)c1[nH]c2ccc(NS(=O)(=O)c3ccc(OC(F)(F)F)cc3)cc2c1-c1ccccc1 [Example 10, 5-(4-(Trifluoromethoxy)benzenesulfonylamino)-3-phenyl-1H-indole-2-carboxylic acid propylamide]			2.1 (≈ 4.06 µM)	
CC(C)(C)c1ccc(S(=O)(=O)Nc2ccc3[nH]c(C(=O)NCCN4CCOCC4)c(-c4ccccc4)c3c2)cc1 [Example 19, 5-(4-tert-Butylbenzenesulfonylamino)-3-phenyl-1H-indole-2-carboxylic acid-(2-morpholin-4-ylethyl)amide]		0.15	4 (≈ 7.13 µM)	
CN1CCN(NC(=O)c2[nH]c3ccc(NS(=O)(=O)c4ccc(C(C)(C)C)cc4)cc3c2-c2ccccc2)CC1 [Example 20, 5-(4-tert-Butylbenzenesulfonylamino)-3-phenyl-1H-indole-2-carboxylic acid-(4-methylpiperazin-1-yl)amide]		2.6		
CC(C)(C)c1ccc(S(=O)(=O)Nc2ccc3[nH]c(C(=O)Nc4ccncc4)c(-c4ccccc4)c3c2)cc1 [Example 21, 5-(4-tert-Butylbenzenesulfonylamino)-3-phenyl-1H-indole-2-carboxylic acid-pyrindin-4-ylamide]		3.4	0.1 (≈ 0.191 µM)	
CN(C)CCNC(=O)c1[nH]c2ccc(NS(=O)(=O)c3ccc(C(C)(C)C)cc3)cc2c1-c1ccccc1Cl [Example 24, 5-(4-tert-Butylbenzenesulfonylamino)-3-(2-chlorophenyl)-1H-indole-2-carboxylic acid-(2-dimethylaminoethyl)amide]		1.6	8 (≈ 14.5 µM)	
CN(C)CCNC(=O)c1[nH]c2ccc(NS(=O)(=O)c3ccc(C(C)(C)C)cc3)cc2c1-c1cccc(Cl)c1 [Example 25, 5-(4-tert-Butylbenzenesulfonylamino)-3-(3-chlorophenyl)-1H-indole-2-carboxylic acid-(2-dimethylaminoethyl)amide]	0.63	0.63	5 (≈ 9.04 µM)	5 (≈ 9.04 µM)
CN(C)CCNC(=O)c1[nH]c2ccc(NS(=O)(=O)c3ccc(C(C)(C)C)cc3)cc2c1-c1ccc(Cl)cc1 [Example 26, 5-(4-tert-Butylbenzenesulfonylamino)-3-(4-chlorophenyl)-1H-indole-2-carboxylic acid-(2-dimethylaminoethyl)amide]		9.9	3 (≈ 5.42 µM)	
Cc1ccccc1-c1c(C(=O)NCCN(C)C)[nH]c2ccc(NS(=O)(=O)c3ccc(C(C)(C)C)cc3)cc12 [Example 28, 5-(4-tert-Butylbenzenesulfonylamino)-3-(2-methylphenyl)-1H-indole-2-carboxylic acid-(2-dimethylaminoethyl)amide]		2.7	5 (≈ 9.39 µM)	
Cc1ccc(-c2c(C(=O)NCCN(C)C)[nH]c3ccc(NS(=O)(=O)c4ccc(C(C)(C)C)cc4)cc23)cc1 [Example 29, 5-(4-tert-Butylbenzenesulfonylamino)-3-(4-methylphenyl)-1H-indole-2-carboxylic acid-(2-dimethylaminoethyl)amide]		2	7 (≈ 13.1 µM)	
COc1ccc(-c2c(C(=O)NCCN(C)C)[nH]c3ccc(NS(=O)(=O)c4ccc(C(C)(C)C)cc4)cc23)cc1 [Example 31, 5-(4-tert-Butylbenzenesulfonylamino)-3-(4-methoxyphenyl)-1H-indole-2-carboxylic acid-(2-dimethylaminoethyl)amide]		1.2	7 (≈ 12.8 µM)	
CN(C)CCNC(=O)c1[nH]c2ccc(NS(=O)(=O)c3ccc(C(C)(C)C)cc3)cc2c1-c1cccnc1 [Example 32, 5-(4-tert-Butylbenzenesulfonylamino)-3-pyridin-3-yl-1H-indole-2-carboxylic acid-(2-dimethylaminoethyl)amide]		1.3	55 (≈ 106 µM)	
CC(C)(C)c1ccc(S(=O)(=O)Nc2ccc3[nH]c(C(=O)NCCO)c(-c4ccccc4)c3c2)cc1 [Example 37, 5-(4-tert-Butylbenzenesulfonylamino)-3-phenyl-1H-indole-2-carboxylic acid-(2-hydroxyethyl)amide]		0.07	13 (≈ 26.4 µM)	
CC(C)(C)c1ccc(S(=O)(=O)Nc2ccc3[nH]c(C(=O)NC4CCOCC4)c(-c4ccccc4)c3c2)cc1 [Example 40, 5-(4-tert-Butylbenzenesulfonylamino)-3-phenyl-1H-indole-2-carboxylic acid-(tetrahydropyran-4-yl)amide]	0.086	0.086	5 (≈ 9.4 µM)	5 (≈ 9.4 µM)
